From patent US9420782B2, “Pesticidal composition in the form of aqueous emulsion” (Sumitomo Chemical Company, Limited, priority 2012, dated 2016)

Test: Retention rate of the agriculturally active ingredient after xenon light irradiation (film on glass petri dish)
Assay type: physicochemical
Details: xenon light (290 nm cutoff), 0.68 W/m^2 at 340 nm, 35° C., neat active ingredient air-dried on petri dish
Method: A method for the calculation of a retention rate of the agriculturally active ingredient defined above is more specifically as follows. First, 250 mg of the agriculturally active ingredient is dissolved in 50 mL of a solvent such as acetone, which can sufficiently dissolve the agriculturally active ingredient and also has high volatility, and 1 mL of the solution is added to a glass petri dish having a diameter of 6 cm using a one-mark pipette, spread entirely over the petri dish, and then air-dried at room temperature. The petri dish is covered with a lid made of quartz glass and then set in a weathering tester (manufactured by Q-Lab Corporation under the trade name of Q-SUN Xenon Accelerated Weathering Tester, Model Xe-3) equipped with a borosilicate filter (manufactured by Q-Lab Corporation under the trade name of Daylight-BB Optical Filter) attached thereto. After irradiation with xenon light under the conditions of an intensity at 340 nm of 0.68 W/m^2 and a temperature of 35° C. (35° C. as measured by an insulated black panel thermometer) for a predetermined time, the amount of the agriculturally active ingredient remaining on the petri dish is determined by a known determination method such as high-performance liquid chromatography. […]

CNC(=O)C(OC)c1ccccc1COc1cc(C)ccc1C (stereo not drawn) [compound A, 2-[(2,5-dimethylphenoxy)methyl]-α-methoxy-N-methyl-benzeneacetamide]
retention rate after irradiation with xenon light (8 hours): 93.1%
retention rate after irradiation with xenon light (56 hours): 50.3%
